# pIC50: −log10 of the molar value.
# System: RAW264.7
# Experiment: Anti-inflammatory activity in murine RAW264.7 cells assessed as inhibition of LPS-induced NO production at 50 uM relative to control
# Assay type: functional
# Settings: Mus musculus
row,Compound,inhibition at 50 µM
1,C=CCc1cc(O)c2c(c1)-c1cc(O)c(O)cc1C(C=C)O2 (centres undefined),< 50%
2,C=CCc1cc(O)c(O)cc1-c1cc(OC)c(O)cc1CC=C,< 50%
3,C=CCc1cc(O)c2oc3cc(O)c(O)c(CC=C)c3c2c1,< 50%
4,COc1cc(/C=C/CO)ccc1O [CONIFERYL ALCOHOL],< 50%
5,COc1cc(/C=C/C=O)ccc1O [CONIFERYL ALDEHYDE],< 50%
6,C=CCc1ccc(O)c(OC)c1 [EUGENOL],< 50%
7,COC(=O)/C=C/c1ccc(O)cc1 [METHYL P-HYDROXYCINNAMATE],< 50%
8,COc1cc(C=O)ccc1O [VANILLIN],< 50%

# System: RAW264.7
# Experiment: Anti-inflammatory activity in murine RAW264.7 cells assessed as inhibition of LPS-induced NO production
# Assay type: functional, cell-based
# Settings: Mus musculus
row,pIC50,Compound
1,4.34,C=CCc1cc(O)c(OC)cc1C/C=C/c1ccc(OC)c(O)c1
2,5.01,C=CCc1ccc2c(c1)O[C@@H](c1ccc(O)c(O)c1)[C@H](Cc1cc(O)c(O)cc1CC=C)O2
3,4.39,C=CCc1cc(O)c(O)cc1-c1cc(O)c(O)cc1CC=C
4,5.32,C=CCc1ccc(O)c(O)c1 [HYDROXYCHAVICOL]
5,4.47,CNC(=N)NCCC[C@H](N)C(=O)O [TILARGININE]
6,4.58,O=C/C=C/c1ccc(O)cc1 [p-HYDROXYCINNAMALDEHYDE]

# — ChEMBL document CHEMBL4673299, “A new sesquineolignan and four new neolignans isolated from the leaves of Piper betle, a traditional medicinal plant in Myanmar” (Bioorg Med Chem Lett, 2021)
